{
  "source": "ChEMBL document CHEMBL1201862",
  "about": "“PubChem BioAssay data set” (2004)",
  "key": {"[1]": {"biological_target": "T1, Sentrin-specific protease 8 (Homo sapiens, UniProt Q96LD8)", "T1 sequence (Q96LD8 whole entry)": "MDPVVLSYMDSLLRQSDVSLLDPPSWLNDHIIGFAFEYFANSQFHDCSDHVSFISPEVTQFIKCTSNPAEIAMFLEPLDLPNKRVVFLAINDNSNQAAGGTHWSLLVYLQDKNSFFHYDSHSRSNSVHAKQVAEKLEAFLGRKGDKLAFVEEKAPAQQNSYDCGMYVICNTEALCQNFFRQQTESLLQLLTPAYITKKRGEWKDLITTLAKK", "assay": "SENP8 protease inhibitors, SAR follow-up, biochemical, luminescence (AID 504501)", "assay_type": "functional"}, "[2]": {"biological_target": "T2, Caspase-3 (Homo sapiens, UniProt P42574)", "T2 sequence (P42574 whole entry)": "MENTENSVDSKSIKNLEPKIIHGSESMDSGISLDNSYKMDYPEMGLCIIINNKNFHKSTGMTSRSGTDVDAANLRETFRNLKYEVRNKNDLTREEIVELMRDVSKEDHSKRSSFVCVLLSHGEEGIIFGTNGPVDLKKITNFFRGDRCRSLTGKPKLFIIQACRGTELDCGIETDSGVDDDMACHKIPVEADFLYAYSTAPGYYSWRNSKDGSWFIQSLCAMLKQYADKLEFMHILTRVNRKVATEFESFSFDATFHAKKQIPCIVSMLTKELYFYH", "assay": "SAR Analysis of small molecule inhibitors of Sentrin-specific proteases (SENPs) using a Caspase-3 Selectivity assay. [Related pubchem assays (depositor defined):AID2540, AID2599, AID434973, AID489001]", "assay_type": "functional"}, "[3]": {"biological_target": "T3, Sentrin-specific protease 6 (Homo sapiens, UniProt Q9GZR1)", "T3 sequence (Q9GZR1 whole entry)": "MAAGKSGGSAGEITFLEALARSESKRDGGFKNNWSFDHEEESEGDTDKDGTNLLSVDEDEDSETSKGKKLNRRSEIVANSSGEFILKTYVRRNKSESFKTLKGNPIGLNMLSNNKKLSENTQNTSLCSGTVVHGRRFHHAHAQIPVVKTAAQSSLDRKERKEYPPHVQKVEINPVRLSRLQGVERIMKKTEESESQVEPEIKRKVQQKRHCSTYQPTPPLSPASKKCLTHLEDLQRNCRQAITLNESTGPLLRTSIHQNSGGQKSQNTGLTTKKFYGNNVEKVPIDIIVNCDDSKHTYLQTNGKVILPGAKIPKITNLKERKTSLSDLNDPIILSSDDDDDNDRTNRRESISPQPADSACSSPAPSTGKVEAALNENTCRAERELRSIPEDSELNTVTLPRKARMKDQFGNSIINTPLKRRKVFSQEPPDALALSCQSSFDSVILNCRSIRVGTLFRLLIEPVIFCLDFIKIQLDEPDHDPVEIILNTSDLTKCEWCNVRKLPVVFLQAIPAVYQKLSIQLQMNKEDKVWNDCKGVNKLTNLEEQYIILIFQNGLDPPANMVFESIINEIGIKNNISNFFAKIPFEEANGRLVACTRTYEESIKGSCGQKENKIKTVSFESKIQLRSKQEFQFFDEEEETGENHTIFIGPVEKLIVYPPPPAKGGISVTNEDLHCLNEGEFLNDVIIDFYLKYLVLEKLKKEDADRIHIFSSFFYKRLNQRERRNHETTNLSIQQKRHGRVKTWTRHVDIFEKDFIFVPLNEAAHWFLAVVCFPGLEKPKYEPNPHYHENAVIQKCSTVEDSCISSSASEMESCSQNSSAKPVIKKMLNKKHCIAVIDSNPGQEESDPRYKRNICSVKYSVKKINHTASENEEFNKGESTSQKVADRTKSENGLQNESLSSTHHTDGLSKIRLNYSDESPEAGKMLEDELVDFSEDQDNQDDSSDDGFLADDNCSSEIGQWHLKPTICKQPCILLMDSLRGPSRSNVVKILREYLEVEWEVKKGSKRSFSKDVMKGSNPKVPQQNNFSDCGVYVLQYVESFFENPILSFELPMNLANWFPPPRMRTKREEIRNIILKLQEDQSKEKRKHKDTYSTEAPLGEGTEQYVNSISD", "assay": "SAR Analysis of small molecule inhibitors of Sentrin-specific protease 6 (SENP6) using a Luminescent assay. [Related pubchem assays (depositor defined):AID2582, AID2599]", "assay_type": "functional"}, "[4]": {"biological_target": "T4, Sentrin-specific protease 7 (Homo sapiens, UniProt Q9BQF6)", "T4 sequence (Q9BQF6 whole entry)": "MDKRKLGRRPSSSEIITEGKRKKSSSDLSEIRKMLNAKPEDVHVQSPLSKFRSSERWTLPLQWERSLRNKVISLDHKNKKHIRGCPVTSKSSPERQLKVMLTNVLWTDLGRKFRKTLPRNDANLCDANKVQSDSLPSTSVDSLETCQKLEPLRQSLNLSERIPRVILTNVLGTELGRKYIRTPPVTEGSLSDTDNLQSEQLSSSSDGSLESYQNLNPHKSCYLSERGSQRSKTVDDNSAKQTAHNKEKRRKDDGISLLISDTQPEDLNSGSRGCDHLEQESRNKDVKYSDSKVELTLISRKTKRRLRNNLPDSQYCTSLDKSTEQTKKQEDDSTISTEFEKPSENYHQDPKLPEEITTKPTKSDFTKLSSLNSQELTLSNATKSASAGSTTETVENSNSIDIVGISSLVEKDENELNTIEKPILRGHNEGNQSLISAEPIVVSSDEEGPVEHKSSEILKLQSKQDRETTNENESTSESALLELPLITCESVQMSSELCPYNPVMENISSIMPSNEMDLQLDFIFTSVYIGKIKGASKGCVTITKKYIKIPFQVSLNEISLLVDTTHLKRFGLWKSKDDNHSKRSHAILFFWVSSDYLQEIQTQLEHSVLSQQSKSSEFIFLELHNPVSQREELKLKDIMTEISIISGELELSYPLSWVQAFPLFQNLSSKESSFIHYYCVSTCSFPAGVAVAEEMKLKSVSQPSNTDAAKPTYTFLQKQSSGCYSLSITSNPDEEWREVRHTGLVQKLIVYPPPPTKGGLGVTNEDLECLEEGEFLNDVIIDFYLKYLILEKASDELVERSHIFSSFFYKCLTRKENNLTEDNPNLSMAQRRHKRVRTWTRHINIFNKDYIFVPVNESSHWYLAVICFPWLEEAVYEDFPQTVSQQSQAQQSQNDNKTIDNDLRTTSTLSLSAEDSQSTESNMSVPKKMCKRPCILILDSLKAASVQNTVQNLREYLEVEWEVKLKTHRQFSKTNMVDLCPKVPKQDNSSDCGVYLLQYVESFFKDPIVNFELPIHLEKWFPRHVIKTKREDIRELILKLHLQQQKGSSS", "assay": "SENP7 protease inhibitors, SAR follow-up, biochemical, luminescence (AID 504497)", "assay_type": "functional"}, "[5]": {"biological_target": "T5, Mannose-6-phosphate isomerase (Homo sapiens, UniProt P34949)", "T5 sequence (P34949 whole entry)": "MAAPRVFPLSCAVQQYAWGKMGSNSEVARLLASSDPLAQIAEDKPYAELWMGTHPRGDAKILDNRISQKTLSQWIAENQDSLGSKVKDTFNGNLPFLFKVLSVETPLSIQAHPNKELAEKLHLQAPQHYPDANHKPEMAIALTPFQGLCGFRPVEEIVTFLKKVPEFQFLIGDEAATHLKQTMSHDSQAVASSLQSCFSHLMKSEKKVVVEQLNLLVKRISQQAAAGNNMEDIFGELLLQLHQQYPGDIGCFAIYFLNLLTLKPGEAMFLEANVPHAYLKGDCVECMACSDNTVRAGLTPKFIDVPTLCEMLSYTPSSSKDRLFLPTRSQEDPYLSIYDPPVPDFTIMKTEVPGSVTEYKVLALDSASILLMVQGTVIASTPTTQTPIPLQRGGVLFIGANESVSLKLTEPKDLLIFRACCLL", "assay": "human PMI inhibitors, high substrate, primary screen, biochemical, fluorescence intensity, high mannose 6-phosphate (AID 1220)"}, "[6]": {"biological_target": "T6, Insulin-degrading enzyme (Homo sapiens, UniProt P14735)", "T6 sequence (P14735 whole entry)": "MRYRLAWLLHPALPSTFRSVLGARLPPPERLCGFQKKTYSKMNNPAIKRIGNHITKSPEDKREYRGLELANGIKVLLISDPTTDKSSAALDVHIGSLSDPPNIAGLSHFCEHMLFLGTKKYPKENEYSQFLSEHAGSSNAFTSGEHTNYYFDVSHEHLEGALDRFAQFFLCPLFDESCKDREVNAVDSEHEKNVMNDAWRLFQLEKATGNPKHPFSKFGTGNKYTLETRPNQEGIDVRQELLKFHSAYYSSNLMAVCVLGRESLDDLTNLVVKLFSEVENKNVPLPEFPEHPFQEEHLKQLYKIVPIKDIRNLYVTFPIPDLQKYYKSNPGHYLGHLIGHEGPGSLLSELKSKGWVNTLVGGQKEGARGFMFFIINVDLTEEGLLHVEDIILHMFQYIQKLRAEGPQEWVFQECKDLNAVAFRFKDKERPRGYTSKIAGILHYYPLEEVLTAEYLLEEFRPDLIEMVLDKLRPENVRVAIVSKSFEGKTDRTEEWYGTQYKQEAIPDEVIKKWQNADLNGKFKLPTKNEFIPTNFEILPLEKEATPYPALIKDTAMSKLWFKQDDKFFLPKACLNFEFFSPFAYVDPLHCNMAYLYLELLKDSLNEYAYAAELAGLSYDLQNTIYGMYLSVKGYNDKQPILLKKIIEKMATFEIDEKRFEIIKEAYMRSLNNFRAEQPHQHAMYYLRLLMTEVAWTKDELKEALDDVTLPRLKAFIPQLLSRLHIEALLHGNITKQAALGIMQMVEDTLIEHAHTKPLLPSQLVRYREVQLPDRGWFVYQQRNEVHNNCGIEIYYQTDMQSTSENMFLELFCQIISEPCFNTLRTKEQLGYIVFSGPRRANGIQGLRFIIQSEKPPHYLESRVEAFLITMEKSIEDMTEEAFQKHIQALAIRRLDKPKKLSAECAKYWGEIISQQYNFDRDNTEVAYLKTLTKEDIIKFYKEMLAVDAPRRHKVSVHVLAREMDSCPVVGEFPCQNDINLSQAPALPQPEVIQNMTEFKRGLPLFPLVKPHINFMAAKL", "assay": "activators of recombinant IDE enzyme, dose response, counter-screen for IDE activator project, biochemical, fluorescence polarization (AID 588681)"}, "[7]": {"biological_target": "T6, Insulin-degrading enzyme", "assay": "activators of endogenous IDE in HEK cells, dose response, cell-based, fluorescence polarization (AID 588439)", "assay_type": "functional"}, "[8]": {"test_system": "HEK293", "assay": "HEK cell cytotoxicity by LDH release, dose response, cytotoxicity control for IDE activator project, fluorescence, HEK cells (AID 588440);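 also: cytotoxicity by LDH release measuring loss of membrane integrity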", "assay_type": "functional, cell-based", "details": "Homo sapiens"}, "[9]": {"test_system": "HEK293", "assay": "optical interference in Abeta FP readout, dose response, artefact control for IDE activator project, biochemical, fluorescence polarization (AID 588442)", "assay_type": "functional, cell-based", "details": "Homo sapiens"}, "[10]": {"biological_target": "T2, Caspase-3", "assay": "caspase-3 inhibitors as off-family protease, SAR follow-up, selectivity assay for SENP protease inhibitor project, biochemical, luminescence, set 2 (AID 588599)", "assay_type": "functional"}, "[11]": {"biological_target": "T1, Sentrin-specific protease 8", "assay": "SENP8 protease inhibitors, SAR follow-up, biochemical, luminescence, set 2 (AID 588601)", "assay_type": "functional"}, "[12]": {"biological_target": "T4, Sentrin-specific protease 7", "assay": "SENP7 protease inhibitors, SAR follow-up, biochemical, luminescence, set 2 (AID 588600)", "assay_type": "functional"}, "[13]": {"biological_target": "T3, Sentrin-specific protease 6", "assay": "SENP6 protease inhibitors, SAR follow-up, biochemical, luminescence, set 2 (AID 588598)", "assay_type": "functional"}},
  "note": "Calls of active or inactive are those of the source. Rule as the data show it, for most assays here: actives have a measured IC50 and inactives only a lower limit.",
  "data": [
    {"compound": "COc1cc(Cc2nccc3cc(OC)c(OC)cc23)c(C(=O)c2ccccc2)cc1OC", "values": [
      {"measurement": "IC50", "setting": "[1]", "value": "> 99 µM (inactive)"},
      {"measurement": "IC50", "setting": "[2]", "value": "71.6 µM (active)"},
      {"measurement": "IC50", "setting": "[3]", "value": "50.9 µM (active)"},
      {"measurement": "IC50", "setting": "[4]", "value": "> 99 µM (inactive)"}
    ]},
    {"compound": "O=c1oc2cc(O)ccc2cc1-c1nc2c(s1)CCc1ccccc1-2", "values": [
      {"measurement": "IC50", "setting": "[5]", "value": "> 50 µM (not active)"},
      {"measurement": "EC50", "setting": "[6]", "value": "> 54.7 µM (inactive)"},
      {"measurement": "EC50", "setting": "[7]", "value": "> 54.7 µM (inactive)"},
      {"measurement": "IC50", "setting": "[8]", "value": "> 89.2 µM (inactive)"},
      {"measurement": "EC50", "setting": "[9]", "value": "4.6 µM (active)"}
    ]},
    {"compound": "Cc1ccc(S(=O)(=O)NCCC(=O)N/N=C\\c2c[nH]c3ccccc23)cc1", "values": [
      {"measurement": "IC50", "setting": "[10]", "value": "> 99 µM (inactive)"},
      {"measurement": "IC50", "setting": "[11]", "value": "> 99 µM (inactive)"},
      {"measurement": "IC50", "setting": "[12]", "value": "> 99 µM (inactive)"},
      {"measurement": "IC50", "setting": "[13]", "value": "> 99 µM (inactive)"}
    ]}
  ]
}
